We go through ten compounds from ChEMBL document CHEMBL3608280, “Tetramic Acids and Pyridone Alkaloids from the Endolichenic Fungus Tolypocladium cylindrosporum” (J Nat Prod, 2015).

The subject of test [1] is K562. The test can be described thus: Cytotoxicity against human K562 cells assessed as growth inhibition after 48 hrs by MTT assay. The test is classed as functional, cell-based. As to conditions: K562, 48 h.
Test [2] has as its system A2780. The test can be described thus: Cytotoxicity against human A2780 cells assessed as growth inhibition after 48 hrs by MTT assay. Type of test: functional, cell-based. Conditions: A2780, 48 h. A general note: Tetrazolium dyes change colour on reduction, which living cells bring about.
Test [3] concerns A549. The test can be described thus: Cytotoxicity against human A549 cells assessed as growth inhibition after 48 hrs by MTT assay. The test is classed as functional, cell-based. Conditions: A549, 48 h.
Test [4] concerns MDA-MB-231. The test can be described thus: Cytotoxicity against human MDA-MB-231 cells assessed as growth inhibition after 48 hrs by MTT assay. The test is classed as functional, cell-based. Conditions: MDA-MB-231, 48 h.
For test [5], the system named is A549. The test can be described thus: Induction of apoptosis in human A549 cells after 48 hrs by annexin V-FITC/propidium iodide staining-based flow cytometric analysis. The test is classed as functional, cell-based.
For test [6], the system named is A549. The test can be described thus: Cell cycle arrest in human A549 cells assessed as accumulation at G2/M phase at 2 uM after 24 hrs by propidium iodide staining-based flow cytometric analysis (reference value: 10.29%). The test is classed as functional. (In general: A flow cytometer gives signals particle by particle.)
Test [7] relates to A549. The test can be described thus: Induction of apoptosis in human A549 cells assessed as early apoptotic cells at 2 uM after 48 hrs by annexin V-FITC/propidium iodide staining-based flow cytometric analysis (reference value: 0.86%). Type of test: functional.
The test system of test [8] is A549. The test can be described thus: Induction of apoptosis in human A549 cells assessed as late apoptotic cells at 1 uM after 48 hrs by annexin V-FITC/propidium iodide staining-based flow cytometric analysis (reference value: 3.94%). Type of test: functional.
Test [9] deals with A549. The test can be described thus: Cell cycle arrest in human A549 cells assessed as accumulation at G2/M phase at 1 uM after 24 hrs by propidium iodide staining-based flow cytometric analysis (reference value: 10.29%). The test is classed as functional.
For test [10], the system named is A549. The test can be described thus: Cell cycle arrest in human A549 cells assessed as accumulation at S phase at 2 uM after 24 hrs by propidium iodide staining-based flow cytometric analysis (reference value: 36.98%). The test is classed as functional.
In test [11] the test system is A549. The test can be described thus: Cell cycle arrest in human A549 cells assessed as accumulation at S phase at 1 uM after 24 hrs by propidium iodide staining-based flow cytometric analysis (reference value: 36.98%). The test is classed as functional.
In test [12] the test system is A549. The test can be described thus: Induction of apoptosis in human A549 cells assessed as late apoptotic cells at 2 uM after 48 hrs by annexin V-FITC/propidium iodide staining-based flow cytometric analysis (reference value: 3.94%). The test is classed as functional.
The subject of test [13] is A549. The test can be described thus: Cell cycle arrest in human A549 cells assessed as accumulation at G1 phase at 2 uM after 24 hrs by propidium iodide staining-based flow cytometric analysis (reference value: 52.73%). The test is classed as functional.
The test system of test [14] is A549. The test can be described thus: Cell cycle arrest in human A549 cells assessed as accumulation at G1 phase at 1 uM after 24 hrs by propidium iodide staining-based flow cytometric analysis (reference value: 52.73%). Type of test: functional.
Test [15] concerns A549. The test can be described thus: Cell cycle arrest in human A549 cells assessed as accumulation at G0/G1 phase after 24 hrs by propidium iodide staining-based flow cytometric analysis. Type of test: functional.
Test [16] concerns A549. The test can be described thus: Induction of apoptosis in human A549 cells assessed as dead cells at 1 uM after 48 hrs by annexin V-FITC/propidium iodide staining-based flow cytometric analysis (reference value: 0.43%). The test is classed as functional.
In test [17] the test system is A549. The test can be described thus: Induction of apoptosis in human A549 cells assessed as dead cells at 2 uM after 48 hrs by annexin V-FITC/propidium iodide staining-based flow cytometric analysis (reference value: 0.43%). Type of test: functional.
The subject of test [18] is A549. The test can be described thus: Induction of apoptosis in human A549 cells assessed as early apoptotic cells at 1 uM after 48 hrs by annexin V-FITC/propidium iodide staining-based flow cytometric analysis (reference value: 0.86%). The test is classed as functional.

SMILES strings stand for the structures.

Turning to `C/C=C\C[C@H](C)C[C@H](C)/C(O)=C1/C(=O)N[C@H]([C@H](O)c2ccc(O)cc2)C1=O`, the IC50 in test [1], in [2], in test [3] and in [4] was > 40 µM in each case.
Regarding `Cc1cc(O)c2oc(=O)c(O)c(-c3ccc(O)cc3)c2c1`, the IC50 in test [1], in [2], in test [3] and in test [4] was > 40 µM throughout.
For the compound `CC(C)(O)[C@@H]1C[C@@H](O)[C@]2(C)[C@H](CC[C@@]3(C)[C@H]2CC[C@H]2Cc4c([nH]c5ccccc45)[C@@]23C)O1` [TERPENDOLE E], the IC50 in [1] is 38.7 µM; in test [2], 31.1 µM; in test [3], 18.8 µM; in test [4], 39.2 µM.
In the case of `COc1cccc2c1C(=O)c1c(O)c3c(c(O)c1C2=O)C[C@@](O)(C(=O)CO)C[C@@H]3O[C@H]1C[C@H](N)[C@H](O)[C@H](C)O1` [DOXORUBICIN], the IC50 in test [1] turned out to be 1.1 µM; in test [2], 0.6 µM; in test [3], 0.51 µM.
As for `C=C[C@@H]1C[C@H](C)C[C@H](C)C1c1c(O)ccn(O)c1=O` (stereo partly drawn), the Activity result was “Dose-dependent effect” in test [5]; 1.35% in test [6]; 1.06% in test [7]; 21.94% in [8]; 4.35% in [9]; 16.02% in test [10]. For the same compound, the Activity in [11] is 17.49%; in test [12], 28.3%; in test [13], 82.63%; in test [14] it was 78.16%; in test [15], “Dose-dependent effect”; in [16], 4.25%. Moreover, the Activity is listed as 5.41% in [17] and 3% in test [18]. Besides, the IC50 in test [1] is 1.83 µM; in test [2], 1.36 µM; in test [3], 1.24 µM; in [4], 1.63 µM.
For `C/C=C\C[C@@H](C)C[C@@H](C)/C(O)=C1/C(=O)N/C(=C\c2ccc(O)cc2)C1=O`, the IC50 in [1], in test [2], in test [3] and in test [4] was > 40 µM in each case.
On to `C=C[C@@H]1C[C@H](C)C[C@H](C)C1c1c(O)cc[nH]c1=O` (stereo partly drawn), for which the IC50 in [1], in [2], in test [3] and in [4] was > 40 µM in each case.
For the compound `C/C=C\C[C@H](C)C[C@H](C)/C(O)=C1/C(=O)N[C@@H]([C@@H](O)c2ccc(O)cc2)C1=O`, the IC50 in test [1], in [2], in [3] and in test [4] was > 40 µM in each case.
In the case of `CC1Oc2c(-c3ccc(O)cc3)c[nH]c(=O)c2[C@@H]2[C@@H](C)C[C@@H](C)C[C@@H]12` (stereo partly drawn), the IC50 in test [1], in test [2], in test [3] and in [4] was > 40 µM each time.
Consider `C/C=C\C[C@H](C)C[C@H](C)/C(O)=C1/C(=O)N/C(=C\c2ccc(O)cc2)C1=O`, for which the IC50 in test [1], in test [2], in [3] and in test [4] was > 40 µM throughout.

By IC50 is commonly meant the midpoint of a concentration-inhibition curve.
